Molecular target: T1, zfDHHC15 (Danio rerio, UniProt F1QXD3, C153S)
T1 sequence (F1QXD3 1-332 C153S): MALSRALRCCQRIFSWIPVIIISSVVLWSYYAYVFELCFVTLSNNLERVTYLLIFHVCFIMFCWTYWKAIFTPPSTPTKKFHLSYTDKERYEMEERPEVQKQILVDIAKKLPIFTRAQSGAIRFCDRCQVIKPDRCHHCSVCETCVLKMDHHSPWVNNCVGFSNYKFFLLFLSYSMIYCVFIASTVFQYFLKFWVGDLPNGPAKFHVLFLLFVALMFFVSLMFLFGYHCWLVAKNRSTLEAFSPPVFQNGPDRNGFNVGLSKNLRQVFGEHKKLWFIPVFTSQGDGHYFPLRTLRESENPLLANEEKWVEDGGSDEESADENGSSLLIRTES
Assay: X-ray crystal structure
Conditions: 2.54 Å; acyl-binding cavity; ligand modelled into density, not added

SMILES: CCCCCCCCCCCCCCCC(=O)O [palmitic acid]
- X-ray crystal structure: continuous density in this cavity, which we modeled as a palmitic acid
